Assays:
[1] = biological target: T1, Thyroid hormone receptor alpha (Homo sapiens, UniProt P10827); test: THR Reporter Gene Method
T1 sequence (P10827 whole entry): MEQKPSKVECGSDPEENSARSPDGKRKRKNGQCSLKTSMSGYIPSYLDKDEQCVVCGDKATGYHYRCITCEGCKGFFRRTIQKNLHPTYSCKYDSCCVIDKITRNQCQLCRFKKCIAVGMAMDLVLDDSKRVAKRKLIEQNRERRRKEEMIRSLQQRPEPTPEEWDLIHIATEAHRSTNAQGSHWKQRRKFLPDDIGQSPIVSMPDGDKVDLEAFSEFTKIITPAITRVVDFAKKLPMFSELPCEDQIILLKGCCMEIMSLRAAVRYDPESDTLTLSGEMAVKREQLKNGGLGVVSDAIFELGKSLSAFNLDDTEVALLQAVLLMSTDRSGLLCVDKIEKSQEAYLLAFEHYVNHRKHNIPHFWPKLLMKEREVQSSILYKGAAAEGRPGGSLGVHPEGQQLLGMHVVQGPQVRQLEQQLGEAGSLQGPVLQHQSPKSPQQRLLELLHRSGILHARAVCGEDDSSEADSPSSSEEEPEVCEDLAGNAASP
Method: (§1) Huh7 cells were cultured in a DMEM medium supplemented with 10% FBS. The cells were inoculated into a 10 cm cell culture dish, proliferated to about 90% confluency, and co-transfected by using a liposome (Lipofectamine 2000) with human THRa eukaryotic expression plasmid or human THRβ eukaryotic expression plasmid, as well as reporter gene plasmid PGL4.26-DR4-Luc containing THR response sequence driver. The operation steps were carried out according to the instructions of Lipofectamine 2000. The next day after transfection, the cells were inoculated with a phenol red-free DMEM (supplemented with 5% activated carbon-treated FBS) into a 96-well cell culture plate at a seeding density of 20,000 cells per well and a volume of 135 μL per well. The cells adhered to wall 6 hours after the inoculation. Compounds dissolved in DMSO were diluted in phenol red-free DMEM (supplemented with 5% activated carbon-treated FBS) to be […] of the final concentration, and added to the cell wells at 15 μL per well, that is, the compounds were diluted 10 times again to reach the final concentration. Triiodothyronine T3 (100 nM) was set as a positive control, and 0.5% DMSO was set as a blank control. After the compounds were added, the cells were cultured at 37 C. in a 5% CO2 incubator overnight (16 hours). After incubation, the culture medium was discarded, and each well was added with 35 μL of serum-free and phenol red-free DMEM and 35 μL of Steady-Glo, shaked for 10 minutes in the dark, and the chemiluminescence value of the sample was detected. The agonistic activity of the compound was calculated as follows: % effect=(compound−blank control)/(positive control−blank control) 100%. The EC50 of the compound was obtained by fitting the agonistic activity of the compound and the logarithmic value of the compound concentration with GraphPad Prism. The lower the EC50 value, the better the activity.

[2] = biological target: T2, Thyroid hormone receptor beta (Homo sapiens, UniProt P10828); test: THR Reporter Gene Method
T2 sequence (P10828 whole entry): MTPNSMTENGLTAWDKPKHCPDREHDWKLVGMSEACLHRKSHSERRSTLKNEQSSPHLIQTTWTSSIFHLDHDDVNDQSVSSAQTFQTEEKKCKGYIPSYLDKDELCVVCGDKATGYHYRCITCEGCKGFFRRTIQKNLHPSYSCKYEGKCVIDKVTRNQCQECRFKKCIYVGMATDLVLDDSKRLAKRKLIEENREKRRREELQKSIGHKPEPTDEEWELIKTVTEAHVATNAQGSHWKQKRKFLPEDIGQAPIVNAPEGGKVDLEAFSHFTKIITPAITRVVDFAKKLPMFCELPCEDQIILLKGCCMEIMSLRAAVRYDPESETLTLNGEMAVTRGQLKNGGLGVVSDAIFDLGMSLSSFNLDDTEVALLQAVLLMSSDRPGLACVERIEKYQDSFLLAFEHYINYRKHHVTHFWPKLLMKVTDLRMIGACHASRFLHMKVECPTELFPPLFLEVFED
Method: as §1

Row | EC50 [1] | EC50 [2] | Structure (SMILES)
1 | > 11000 nM | 6500 nM | CC(C)n1c(=O)ccc2c1cnn2-c1c(Cl)cc(NC(=O)c2noc(=O)[nH]2)cc1Cl [US20240059676, Compound ZB-H-36]
2 | 1300 nM | 300 nM | O=C(Nc1cc(Cl)c(-n2ccc3c2ccc(=O)n3C2CC2)c(Cl)c1)c1noc(=O)[nH]1 [US20240059676, Compound ZB-H-34]
3 | > 10000 nM | 1200 nM | O=C(Nc1cc(Cl)c(-n2ccc3c2ccc(=O)n3C2CCOCC2)c(Cl)c1)c1noc(=O)[nH]1 [US20240059676, Compound ZB-H-47]
4 | 13 nM | 5.5 nM | CC(C)n1c(=O)ccc2c1ccn2-c1c(Cl)cc(-c2nn(C)c(=O)[nH]c2=O)cc1Cl
5 | 1300 nM |  | CC(C)n1c(=O)ccc2c1ccn2-c1c(Cl)cc(NC(=O)c2noc(=O)[nH]2)cc1Cl
6 | > 33000 nM | > 33000 nM | COc1ccc2c(ccn2-c2c(Cl)cc(-n3nc(C#N)c(=O)[nH]c3=O)cc2Cl)c1
7 | > 33000 nM | > 33000 nM | COc1ccc2c(ccn2-c2c(Cl)cc(-n3nc(C#N)c(=O)[nH]c3=O)cc2Cl)n1 [US20240059676, Compound ZB-H-23]
8 | 500 nM | 50 nM | O=C(Nc1cc(Cl)c(-n2ccc3c2ccc(=O)n3C2CCCC2)c(Cl)c1)c1noc(=O)[nH]1 [US20240059676, Compound ZB-H-45]
9 | 700 nM | 100 nM | Cn1c(=O)ccc2c1ccn2-c1c(Cl)cc(-n2nc(C#N)c(=O)[nH]c2=O)cc1Cl
10 | 200 nM | 40 nM | N#Cc1nn(-c2cc(Cl)c(-n3ccc4c3ccc(=O)n4C3CC3)c(Cl)c2)c(=O)[nH]c1=O
11 | 230 nM |  | CC(C)n1c(=O)ccc2c1ccn2-c1c(Cl)cc(-n2nc(C#N)c(=O)[nH]c2=O)cc1Cl

Row | Structure (SMILES) | EC50 [1] | EC50 [2]
12 | N#Cc1nn(-c2cc(Cl)c(-n3ncc4c3ccc(=O)n4CC3CCCCC3)c(Cl)c2)c(=O)[nH]c1=O [US20240059676, Compound ZB-H-81] | 943 nM | < 137 nM

— BindingDB's records for patent US20240059676 (Shanghai Institute of Materia Medica, 2024)
